The values that follow come from EP0602242A1, “BENZISOXAZOLE COMPOUND AND USE THEREOF” (priority 1991, dated 1993).

Data set [1] deals with acetylcholinesterase (AChE) derived from human (Homo sapiens, UniProt P22303). In words: biochemical.
Data set [2] is described as follows: Acute toxicity after oral administration. As to conditions: rat, in vivo; oral administration to rats; read-out: acute toxicity values (LD₅₀). The method, then:
The acute toxicity values (LD₅₀) of the compounds of the present invention 6 and 41 after oral administration to rats were not less than 50 mg/kg.

The target in data set [3] is butyrylcholinesterase (BChE) derived from human (Homo sapiens, UniProt P06276). In words: biochemical.
The target in the next data set is sigma receptor. In words: Sigma receptor binding test (3H-DTG, rat cerebral cortex membrane fractions). Further details: species or system Male Wistar rats. To be noted: rat cerebral cortex membranes, 3H-DTG 2.5 nM, 25°C 60 minutes, Ki = IC50/[1 + (L/Kd)], Kd 26.3 nM; read-out: Sigma receptor binding assay ³H-DTG (Ki). On the procedure: Male Wistar rats weighing 250-300 g were decapitated and the brains were removed. Cerebral cortex was dissected on ice, and the brain tissues were homogenized in 20 volumes of Tris-HCl buffer (pH 8.0, 25°C) containing 320 mM sucrose. The homogenate was centrifuged at 1000 × g for 10 minutes. The obtained supernatant was centrifuged at 31,000 × g for 15 minutes and the pellets obtained were suspended in the same Tris-HCl buffer, followed by incubation at 37°C for 10 minutes. Centrifugation was repeated twice and the final pellets were suspended in 50 mM Tris-HCl buffer (pH 8.0, 25°C) and used as membrane fractions.
A binding inhibitory test was conducted by adding [³H]-1,3-di-o-tolylguanidine (³H-DTG, 39.4 Ci/mmol, New England Nuclear, final concentration 2.5 nM) and respective test compounds (5 different concentrations) to the membrane fractions (0.9 ml, 0.5-0.8 mg) and then the above-mentioned buffer to the final volume of 1 ml. The mixtures were incubated at 25°C for 60 minutes. The reaction mixture was suction-filtered through Whatman GF/B filters which had been treated previously with 0.1% polyethyleneimine and washed three times with 3 ml of 10 mM Tris-HCl buffer (pH 7.7, 25°C). Then, the β rays of the bound ³H-DTG on the filter were measured by a liquid scintillation counter.
IC₅₀ values were determined graphically and Ki values were calculated by the numerical equation Ki = IC₅₀/[1 + (L/Kd)] [formula] wherein L is a concentration of radioligand and Kd (26.3 nM) is a dissociation constant between tritiated ligand and the receptor.

Data set [4] addresses T1, acetylcholinesterase (AChE) (Rattus norvegicus, UniProt P37136).
T1 construct: An enzyme solution was a homogenized solution of forebrain from male Wistar rat; from tissue; host or cells: forebrain of male Wistar rat (homogenate)
T1 sequence (P37136 32-614): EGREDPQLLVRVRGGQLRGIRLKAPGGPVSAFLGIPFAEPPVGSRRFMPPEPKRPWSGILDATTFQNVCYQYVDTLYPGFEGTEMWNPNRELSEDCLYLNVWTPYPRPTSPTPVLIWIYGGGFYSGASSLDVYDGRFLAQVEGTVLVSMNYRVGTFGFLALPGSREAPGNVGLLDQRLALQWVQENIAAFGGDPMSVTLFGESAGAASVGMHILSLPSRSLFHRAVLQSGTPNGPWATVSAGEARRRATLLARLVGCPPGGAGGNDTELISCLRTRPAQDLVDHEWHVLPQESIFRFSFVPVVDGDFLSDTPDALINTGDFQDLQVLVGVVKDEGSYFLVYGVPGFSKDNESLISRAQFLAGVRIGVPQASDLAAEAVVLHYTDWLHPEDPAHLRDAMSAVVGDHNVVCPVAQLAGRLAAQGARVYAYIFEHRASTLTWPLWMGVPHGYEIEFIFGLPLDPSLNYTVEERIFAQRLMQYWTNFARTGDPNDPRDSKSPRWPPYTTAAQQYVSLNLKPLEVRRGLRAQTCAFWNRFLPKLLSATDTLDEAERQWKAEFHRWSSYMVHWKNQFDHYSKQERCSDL
In words: biochemical. Further details: species or system male Wistar rat. The method, then:
An enzyme solution was a homogenized solution of forebrain from male Wistar rat in 0.1M phosphate buffer (pH 8.0). Acetylthiocholine was used as a substrate for acetylcholinesterase (AChE) and the density of thionitrobenzoate (yellow) produced by the following reaction was measured with a spectrophotometer (OD₄₁₂). [drawing 27] Thiocholine + dithiobisnitrobenzoate → thionitrobenzoate Test compounds were dissolved in dimethylsulfoxide and diluted with 0.1M phosphate buffer (pH 8.0).

The mark [5] stands for this setting: AChE derived from human, substrate acetylthiocholine, read-out: IC₅₀ AChE.
Setting [6] is: IC50 for human BChE divided by IC50 for human AChE.
Setting [7] is: BChE derived from human, substrate butyrylthiocholine, read-out: IC₅₀ BChE.
Setting [8] is: homogenized forebrain of male Wistar rat, substrate acetylthiocholine, 0.1M phosphate buffer pH 8.0, read-out: Acetylcholinesterase inhibition IC₅₀.

The Ki is the equilibrium dissociation constant of an inhibitor or competing ligand from its target.

Where a name gives a salt, the structure may show the parent alone. Read-outs that look alike come from different tables or passages of the source.

Chain of butyrylcholinesterase (BChE) derived from human (P06276 29-602): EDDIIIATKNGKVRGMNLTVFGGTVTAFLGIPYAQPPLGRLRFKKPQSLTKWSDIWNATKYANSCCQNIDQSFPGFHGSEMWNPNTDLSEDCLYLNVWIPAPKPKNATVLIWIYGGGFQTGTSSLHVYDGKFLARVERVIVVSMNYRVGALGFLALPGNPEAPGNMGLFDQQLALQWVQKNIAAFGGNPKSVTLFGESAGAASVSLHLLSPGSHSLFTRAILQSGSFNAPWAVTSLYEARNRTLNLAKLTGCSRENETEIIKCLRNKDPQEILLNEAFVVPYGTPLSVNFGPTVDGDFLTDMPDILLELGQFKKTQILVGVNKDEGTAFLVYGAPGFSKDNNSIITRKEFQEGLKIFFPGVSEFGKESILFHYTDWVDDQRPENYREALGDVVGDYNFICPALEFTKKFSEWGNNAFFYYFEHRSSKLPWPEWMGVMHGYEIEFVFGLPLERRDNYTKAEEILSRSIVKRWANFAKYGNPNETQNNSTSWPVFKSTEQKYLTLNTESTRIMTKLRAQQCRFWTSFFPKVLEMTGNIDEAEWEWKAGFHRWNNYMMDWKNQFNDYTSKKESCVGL
Chain of acetylcholinesterase (AChE) derived from human (P22303 32-614): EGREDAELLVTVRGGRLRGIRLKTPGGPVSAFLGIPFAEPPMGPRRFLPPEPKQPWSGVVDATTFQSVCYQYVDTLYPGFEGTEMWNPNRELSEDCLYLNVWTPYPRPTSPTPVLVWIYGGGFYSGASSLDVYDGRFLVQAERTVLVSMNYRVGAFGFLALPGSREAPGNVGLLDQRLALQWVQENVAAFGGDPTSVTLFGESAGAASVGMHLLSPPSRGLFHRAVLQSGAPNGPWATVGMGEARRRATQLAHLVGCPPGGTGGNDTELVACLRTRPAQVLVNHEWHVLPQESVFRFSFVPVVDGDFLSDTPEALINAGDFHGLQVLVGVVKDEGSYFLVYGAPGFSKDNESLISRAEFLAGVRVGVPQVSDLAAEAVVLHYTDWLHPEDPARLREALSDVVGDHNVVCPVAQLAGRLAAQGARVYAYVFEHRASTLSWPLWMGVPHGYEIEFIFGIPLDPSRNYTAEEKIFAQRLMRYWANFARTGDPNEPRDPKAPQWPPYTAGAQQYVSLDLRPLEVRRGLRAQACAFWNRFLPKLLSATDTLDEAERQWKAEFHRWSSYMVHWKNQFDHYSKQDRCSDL

In the case of `CC(=O)Nc1ccc2c(CCC3CCN(Cc4ccccc4)CC3)noc2c1` [Example 6, 6-acetylamino-3-(2-(1-benzyl-4-piperidyl)ethyl)-1,2-benzisoxazole], the “Selectivity IC₅₀ (BChE)/IC₅₀ (AChE)” value in data set [1] was 4,500. For the same compound, the IC50 in data set [1] (setting [5]) was 2.1 nM; in data set [3] it was 9500 nM. Further, the LD50 in data set [2] is at least 50 mg/kg.

`CN(C)C(=S)Oc1ccc2c(CCC3CCN(Cc4ccccc4)CC3)noc2c1` [Example 11]: the IC50 was 0.5 nM in data set [1] and above 10000 nM in data set [3]. Also, the “Selectivity IC₅₀ (BChE)/IC₅₀ (AChE)” value in data set [1] (setting [6]) is >20,000.

Consider `CC(=O)N(C)c1ccc2c(CCC3CCN(Cc4ccccc4)CC3)noc2c1` [Example 41, 3-(2-(1-Benzyl-4-piperidyl)ethyl)-6-(N-methylacetamino)-1,2-benzisoxazole], for which the results for the IC50 in data set [1] (setting [5]) and in data set [3] (setting [7]) were 4.6 nM and 17000 nM, respectively. For the same compound, the “Selectivity IC₅₀ (BChE)/IC₅₀ (AChE)” value in data set [1] (setting [6]) is 3,700. Besides, the LD50 in data set [2] is at least 50 mg/kg.

In the case of `Cc1ccc2c(=O)n(CCC3CCN(CC4CCCCC4)CC3)oc2c1` [Example 227, 2-(2-(1-Cyclohexylmethyl-4-piperidyl)ethyl)-6-methyl-1,2-benzisoxazol-3(2H)-one fumarate], the inhibition constant (Ki) at sigma receptor came to 0.55 nM.

Consider `O=C(Nc1ccc2c(=O)n(CCCC3CCN(Cc4ccccc4)CC3)oc2c1)c1ccccc1` [Example 198, 6-benzoylamino-2-(3-(1-benzyl-4-piperidyl)propyl)-1,2-benzisoxazol-3(2H)-one], for which the IC50 in data set [1] (setting [5]) amounted to 0.94 nM; in data set [3] (setting [7]) it was 3600 nM. Further, the “Selectivity IC₅₀ (BChE)/IC₅₀ (AChE)” value in data set [1] (setting [6]) is on record as 3,800.

Turning to `CNC(=O)Oc1cccc(CN2CCC(CCc3noc4c(OC)c(OC)ccc34)CC2)c1` [Example 23, 3-(2-(1-(3-(N-methylcarbamoyloxy)benzyl)-4-piperidyl)ethyl)-6,7-dimethoxy-1,2-benzisoxazole], the IC50 in data set [4] worked out at 0.34 nM.

Consider `Cc1ccc2onc(OCCC3CCN(CC4CCCCC4)CC3)c2c1` [Example 160, 3-(2-(1-Cyclohexylmethyl-4-piperidyl)ethyloxy)-5-methyl-1,2-benzisoxazole fumarate], for which the inhibition constant Ki at sigma receptor was found to be 0.23 nM.

Regarding `O=C(Nc1ccc2c(=O)n(CCC3CCN(Cc4ccccc4)CC3)oc2c1)c1ccccc1` [Example 252, 6-Benzoylamino-2-(2-(1-benzyl-4-piperidyl)ethyl)-1,2-benzisoxazol-3(2H)-one], the IC50 in data set [4] (setting [8]) is 0.73 nM.

Consider `COc1ccc2c(CCC3CCN(Cc4ccccc4)CC3)noc2c1OC` [Example 19, 3-(2-(1-benzyl-4-piperidyl)ethyl)-6,7-dimethoxy-1,2-benzisoxazole], for which the IC50 amounted to 1.8 nM in data set [1] (setting [5]), 0.38 nM in data set [4] (setting [8]) and 7500 nM in data set [3] (setting [7]). Further, the “Selectivity IC₅₀ (BChE)/IC₅₀ (AChE)” value in data set [1] (setting [6]) is on record as 4,200.

With `Cc1ccc2c(OCCC3CCN(CC4CCCCC4)CC3)noc2c1` [Example 164, 3-(2-(1-Cyclohexylmethyl-4-piperidyl)ethyloxy)-6-methyl-1,2-benzisoxazole fumarate], the Ki on sigma receptor worked out at 0.37 nM.

As for `Cc1ccc2on(CCC3CCN(CC4CCCCC4)CC3)c(=O)c2c1` [Example 231, 2-(2-(1-Cyclohexylmethyl-4-piperidyl)ethyl)-5-methyl-1,2-benzisoxazol-3(2H)-one fumarate], at sigma receptor, the inhibition constant Ki worked out at 0.42 nM.
